Test system: PAO1 biofilm
Assay: In vitro MBEC antibiofilm assay
Assay type: cell-based, P. aeruginosa
Settings: 5-15 μg/mL colistin
Procedure: The pegs on lid of the MBEC Assay® were submerged into the bacterial suspension, with column 12 containing sterile LB broth as a negative control. The plate was incubated at 37° C. on a rotating gyrator for 24 h to form biofilm on the pegs. After 24 h, the peg lid was removed and transferred into another 96-well microtiter plate containing sterile water for 30 seconds before being transferred into a treatment plate. The peg lid in the treatment plate was incubated for 24 h at 37° C. on the rotating gyrator. In the first study, the effect of concentration variation of TOB in MO-LCNPs was determined. […] The respective controls included unloaded formulations MO-LCNP and […] at equivalent concentrations and 0.9% NaCl. […] In the second study, the difference in effect of MO- and […] compared to liposomes containing TOB was determined. […] The final concentration of MO and PHY was 0.25 mg/mL. Liposomes were prepared as described above. In the third study, TOB, AMI and GEN as unformulated solutions and loaded in MO-LCNPs were compared as treatments against PAO1 biofilms in the MBEC Assay®. The concentration of each antibiotic was 6 μg/mL. […] In all four different studies, the treatments were incubated with the PAO1 biofilm grown on the MBEC Assay® on a rotating plate at 37° C. After 24 h incubation, the peg lid was transferred to a fresh plate containing sterilized water to inhibit treatments. […]

## Colistin sulfate salt
  anti-biofilm effect compared to saline control: no anti-biofilm or antimicrobial effect

— patent US12569508B2, “Antimicrobial compositions and methods of use” (priority 2020, dated 2026)
